US10508109B2 (priority 2015, dated 2019)
Where a name gives a salt, the structure may show the parent alone. Read-outs that look alike come from different tables or passages of the source.

How the values were obtained:
SUV39H2 = SUV39H2 (Homo sapiens (Human), UniProt Q9H5I1); experiment: biochemical; format: biochemical; conditions: 3H-SAM 100 nM, H3 Histone Peptide 350 nM, room temperature 3 hours
Description: Assay buffer (4 μL) was added into all the wells, including test compound and control wells (except for Sinefungin control wells), using the Multidrop Combi. The plate was centrifuged at 1000 rpm for 1 min. […] SUV39H2 (8 μL, final conc: optimized for each lot of the enzyme based on specific activity) was added by using the Multidrop Combi. The assay plate was centrifuged at 1000 rpm for 1 min. Assay buffer was used as background control, and incubated at room temperature for 3 hours. The reaction was stopped with 20 μL of 2.5 mg/mL Streptavidin SPA beads (final conc. 50 μg/well) in buffer using the Multidrop Combi and centrifuged for 1 min. The plate was loaded into the Trilux-Microbeta counter and a delayed read of 10 hours was made. The radioactive signal was measured at 1 min/well. Sinefungin and the internal standard compound were used as tool compounds to determine assay performance.
• The following calculations were made using the obtained CPM raw data: Software used: XLFit from IDBS.
For each test plate the following results were calculated: • Average, Standard Deviation, and % CV of Background Controls • Average, Standard Deviation, and % CV of Positive Controls • Z′ value of the plate • IC50 values of standard and test compounds (in nM) • R^2 value of fitted concentration response curve • Hill slope coefficient of fitted concentration response curve • Signal to Noise Ratio

A549 = experiment: Cell-based assay, anti-proliferative activity (Cell Counting Kit-8, 72 hours); conditions: Homo sapiens, read-out: A549 IC50
Method in brief: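 Seed cells in 96-well format; add inhibitors; measure growth by CCK-8 at end of exposure; derive IC50.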

[1] = A549 cells, 72 hours exposure, Cell Counting Kit-8

Chain of SUV39H2 (Q9H5I1 whole entry): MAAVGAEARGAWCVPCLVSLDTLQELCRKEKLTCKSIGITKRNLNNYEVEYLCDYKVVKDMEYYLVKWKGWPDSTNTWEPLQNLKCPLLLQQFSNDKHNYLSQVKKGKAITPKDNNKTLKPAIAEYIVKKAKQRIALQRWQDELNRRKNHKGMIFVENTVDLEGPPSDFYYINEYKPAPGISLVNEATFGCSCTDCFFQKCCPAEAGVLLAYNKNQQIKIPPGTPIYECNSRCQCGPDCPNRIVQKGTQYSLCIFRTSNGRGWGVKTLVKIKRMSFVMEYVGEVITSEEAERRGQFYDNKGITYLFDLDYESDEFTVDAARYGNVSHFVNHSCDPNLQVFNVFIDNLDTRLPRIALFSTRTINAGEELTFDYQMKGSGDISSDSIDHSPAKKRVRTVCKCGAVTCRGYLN

| SMILES | IC50 (SUV39H2) | IC50 (A549; A549, 72 h) | IC50 (A549; [1]) |
| --- | --- | --- | --- |
| COc1cc(OC)c(-c2cn3ccc(N4CCN(c5ccnc(N6CCNCC6)n5)CC4)cc3n2)cc1Cl [Example 341, 2-(5-chloro-2,4-dimethoxyphenyl)-7-(4-(2-(piperazin-1-yl)pyrimidin-4-yl)piperazin-1-yl)imidazo[1,2-a]pyridine] | 23.4 nM | 740 nM |  |
| COc1cc(OC)c(-c2cn3ccc(N4CCN(c5nc(N)nc(N6CCCC6)n5)CC4)cc3n2)cc1Cl [Example 431, 4-(4-(2-(5-chloro-2,4-dimethoxyphenyl)imidazo[1,2-a]pyridin-7-yl)piperazin-1-yl)-6-(pyrrolidin-1-yl)-1,3,5-triazin-2-amine] | 88.4 nM |  | 760 nM |
| COc1cc(OC)c(-c2cn3ccc(N[C@H]4CC[C@@H](NCc5ccccc5)CC4)cc3n2)cc1Cl [Example 325, cis-N^1-benzyl-N^4-(2-(5-chloro-2,4-dimethoxyphenyl)imidazo[1,2-a]pyridin-7-yl)cyclohexane-1,4-diamine] | 23.4 nM |  | 800 nM |
| COc1cc(OC)c(-c2cn3ccc(N4CC[C@H](NCc5ccc(NC(=O)OC(C)(C)C)cc5)C4)cc3n2)cc1Cl [Example 386, (S)-tert-butyl (4-(((1-(2-(5-chloro-2,4-dimethoxyphenyl)imidazo[1,2-a]pyridin-7-yl)pyrrolidin-3-yl)amino)methyl)phenyl)carbamate] | 24.8 nM |  | 730 nM |
| COc1cc(OC)c(-c2cn3ccc(N[C@H]4CC[C@@H](NC(=O)c5ccccc5O)CC4)cc3n2)cc1Cl [Example 392, N-(cis-4-((2-(5-chloro-2,4-dimethoxyphenyl)imidazo[1,2-a]pyridin-7-yl)amino)cyclohexyl)-2-hydroxybenzamide trifluoroacetate] | 52.7 nM |  | 680 nM |
| COc1cc(OC)c(-c2cn3ccc(N4CCCN(CC5CCCCC5)CC4)cc3n2)cc1Cl [Example 435, 2-(5-chloro-2,4-dimethoxyphenyl)-7-(4-(cyclohexylmethyl)-1,4-diazepan-1-yl)imidazo[1,2-a]pyridine] | 6.46 nM |  | 650 nM |
| CNc1ncnc(N2CCN(c3ccn4cc(-c5cc(Cl)c(OC)cc5OC)nc4c3)CC2)n1 [Example 451, 4-(4-(2-(5-chloro-2,4-dimethoxyphenyl)imidazo[1,2-a]pyridin-7-yl)piperazin-1-yl)-N-methyl-1,3,5-triazin-2-amine] | 17 nM |  | 460 nM |
| COc1cc(OC)c(-c2cn3ccc(N4CCN(Cc5ccncc5Br)CC4)cc3n2)cc1Cl [Example 345, 7-(4-((3-bromopyridin-4-yl)methyl)piperazin-1-yl)-2-(5-chloro-2,4-dimethoxyphenyl)imidazo[1,2-a]pyridine] | 35.4 nM |  | 850 nM |
| COc1cc(OC)c(-c2cn3ccc(N4CCN(c5nc(N)nc(NC(C)(C)C)n5)CC4)cc3n2)cc1Cl [Example 446, N^2-(tert-butyl)-6-(4-(2-(5-chloro-2,4-dimethoxyphenyl)imidazo[1,2-a]pyridin-7-yl)piperazin-1-yl)-1,3,5-triazine-2,4-diamine] | 97.4 nM |  | 430 nM |
| COc1cc(OC)c(-c2cn3ccc(N[C@H]4C[C@H]5CC[C@@H](C4)N5C(=O)c4ccccc4)cc3n2)cc1Cl [Example 457, ((1R,3r,5S)-3-((2-(5-chloro-2,4-dimethoxyphenyl)imidazo[1,2-a]pyridin-7-yl)amino)-8-azabicyclo[3.2.1]octan-8-yl)(phenyl)methanone] | 34.8 nM |  | 820 nM |
| COc1cc(OC)c(-c2cn3ccc(N[C@H]4C[C@H]5CC[C@@H](C4)N5CC(C)(C)C)cc3n2)cc1Cl [Example 452, 2-(5-chloro-2,4-dimethoxyphenyl)-N-((1R,3r,5S)-8-neopentyl-8-azabicyclo[3.2.1]octan-3-yl)imidazo[1,2-a]pyridin-7-amine] | 42.6 nM |  | 830 nM |
| CNC1CCN(c2ncc(N3CCN(c4ccn5cc(-c6cc(Cl)c(OC)cc6OC)nc5c4)CC3)cn2)CC1 [Example 396, 1-(5-(4-(2-(5-chloro-2,4-dimethoxyphenyl)imidazo[1,2-a]pyridin-7-yl)piperazin-1-yl)pyrimidin-2-yl)-N-methylpiperidin-4-amine dihydrochloride] | 14.6 nM | 780 nM |  |
| COc1cc(OC)c(-c2cn3ccc(N[C@H]4CC[C@H](NCc5ccc(C)cc5)CC4)cc3n2)cc1Cl [Example 328, (1r,4r)-N^1-(2-(5-chloro-2,4-dimethoxyphenyl)imidazo[1,2-a]pyridin-7-yl)-N^4-(4-methylbenzyl)cyclohexane-1,4-diamine (2,2,2-trifluoroacetate)] | 60.5 nM |  | 360 nM |
| COc1cc(OC)c(-c2cn3ccc(N4CCC(Nc5ccncn5)CC4)cc3n2)cc1Cl [Example 374, N-(1-(2-(5-chloro-2,4-dimethoxyphenyl)imidazo[1,2-a]pyridin-7-yl)piperidin-4-yl)pyrimidin-4-amine] | 31.4 nM |  | 660 nM |
| COc1cc(OC)c(-c2cn3ccc(N4CCN(c5ccncc5F)CC4)cc3n2)cc1Cl [Example 322, 2-(5-chloro-2,4-dimethoxyphenyl)-7-(4-(3-fluoropyridin-4-yl)piperazin-1-yl)imidazo[1,2-a]pyridine] | 57.5 nM |  | 560 nM |
| COc1cc(OC)c(-c2cn3ccc(N4CC[C@H](NC(=O)c5ccccn5)C4)cc3n2)cc1Cl [Example 404, (S)—N-(1-(2-(5-chloro-2,4-dimethoxyphenyl)imidazo[1,2-a]pyridin-7-yl)pyrrolidin-3-yl)picolinamide] | 4.03 nM |  | 1500 nM |
| COc1cc(OC)c(-c2cn3ccc(N4CCN(c5ncnc(N(C)C)n5)CC4)cc3n2)cc1Cl [Example 450, 4-(4-(2-(5-chloro-2,4-dimethoxyphenyl)imidazo[1,2-a]pyridin-7-yl)piperazin-1-yl)-N,N-dimethyl-1,3,5-triazin-2-amine] | 33.6 nM |  | 730 nM |
| COc1cc(OC)c(-c2cn3ccc(N[C@H]4CC[C@@H](NCc5ccc(C)cc5)CC4)cc3n2)cc1Cl [Example 329, cis-N^1-(2-(5-chloro-2,4-dimethoxyphenyl)imidazo[1,2-a]pyridin-7-yl)-N^4-(4-methylbenzyl)cyclohexane-1,4-diamine] | 38.8 nM |  | 780 nM |
| COc1cc(OC)c(-c2cn3ccc(N4CCN(c5ncc(N6CCC(N)CC6)cn5)CC4)cc3n2)cc1Cl [Example 441, 1-(2-(4-(2-(5-chloro-2,4-dimethoxyphenyl)imidazo[1,2-a]pyridin-7-yl)piperazin-1-yl)pyrimidin-5-yl)piperidin-4-amine] | 4.99 nM |  | 540 nM |
| COc1cc(OC)c(-c2cn3ccc(N[C@H]4CC[C@@H](N(C)Cc5ccccc5C)CC4)cc3n2)cc1Cl [Example 348, cis-N^1-(2-(5-chloro-2,4-dimethoxyphenyl)imidazo[1,2-a]pyridin-7-yl)-N^4-methyl-N^4-(2-methylbenzyl)cyclohexane-1,4-diamine bis(2,2,2-trifluoroacetate)] | 31.2 nM |  | 750 nM |
| COc1cc(OC)c(-c2cn3ccc(N4CCN(c5cc(N6CCCC6)nc(N)n5)CC4)cc3n2)cc1Cl [Example 385, 4-(4-(2-(5-chloro-2,4-dimethoxyphenyl)imidazo[1,2-a]pyridin-7-yl)piperazin-1-yl)-6-(pyrrolidin-1-yl)pyrimidin-2-amine] | 38 nM |  | 660 nM |
| COc1cc(OC)c(-c2cn3ccc(N4CCN(c5ccnc(N6CCNC(C)C6)n5)CC4)cc3n2)cc1Cl (stereo not shown) [Example 362, 2-(5-chloro-2,4-dimethoxyphenyl)-7-(4-(2-(3-methylpiperazin-1-yl)pyrimidin-4-yl)piperazin-1-yl)imidazo[1,2-a]pyridine] | 15.5 nM |  | 680 nM |
| COc1cc(OC)c(-c2cn3ccc(N4CCN(c5nccc(N6CCNCC6)n5)CC4)cc3n2)cc1Cl [Example 359, 2-(5-chloro-2,4-dimethoxyphenyl)-7-(4-(4-(piperazin-1-yl)pyrimidin-2-yl)piperazin-1-yl)imidazo[1,2-a]pyridine dihydrochloride] | 12.2 nM | 400 nM |  |
| COc1cc(OC)c(-c2cn3ccc(N4CCC(C(=O)NC5CCN(C(=O)OC(C)(C)C)CC5)CC4)cc3n2)cc1Cl [Example 460, tert-butyl 4-(1-(2-(5-chloro-2,4-dimethoxyphenyl)imidazo[1,2-a]pyridin-7-yl)piperidine-4-carboxamido)piperidine-1-carboxylate] | 20.7 nM |  | 690 nM |
| COc1cc(OC)c(-c2cn3ccc(N4CC[C@H](NCc5ccc(N(C)C(=O)OC(C)(C)C)cc5)C4)cc3n2)cc1Cl [Example 394, (S)-tert-butyl (4-(((1-(2-(5-chloro-2,4-dimethoxyphenyl)imidazo[1,2-a]pyridin-7-yl)pyrrolidin-3-yl)amino)methyl)phenyl)(methyl)carbamate] | 10.3 nM |  | 800 nM |
| COc1cc(OC)c(-c2cn3ccc(N4CCN(c5cc(N6CCNCC6)ncn5)CC4)cc3n2)cc1Cl [Example 375, 2-(5-chloro-2,4-dimethoxyphenyl)-7-(4-(6-(piperazin-1-yl)pyrimidin-4-yl)piperazin-1-yl)imidazo[1,2-a]pyridine] | 23.1 nM |  | 690 nM |
